Like-named read-outs stand apart in the source and are kept apart here.
Assays:
Type in all cases: cell-based
[1] = tested on: T-Rex 293 cells having increased expression of estrogen receptor alpha protein; assay: Cellular growth inhibition assay, T-Rex 293 cells, (+) doxycycline; conditions: T-REx-293, 72 h, T-Rex 293 cells with doxycycline (increased ERα expression), 72 hours, CellTiter-Glo, read-out: (+) Dox GI50
Method in brief: (§1)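 ERα overexpression was switched on by 3 ng/mL doxycycline in a stably transfected T-Rex 293 clone, while uninduced cells served as the comparison line. Proliferation over 72 h of compound treatment was assessed by ATP luminescence, and GI50 values came from four-parameter curves.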

[2] = tested on: T-Rex 293 cells lacking increased expression of estrogen receptor alpha protein; assay: Cellular growth inhibition assay, T-Rex 293 cells, (−) doxycycline; conditions: T-REx-293, 72 h, T-Rex 293 cells without doxycycline (lacking increased ERα expression), 72 hours, CellTiter-Glo, read-out: (−) Dox GI50
Method in brief: as §1

[3] = tested on: MCF7 cells (ATCC #HTB-22); assay: Cellular growth inhibition assay, MCF7 cells purchased from ATCC; conditions: Homo sapiens, MCF7, 144 h, Table 8-A; MCF7 cells purchased from ATCC; six days; CellTiter-Glo; read-out: GI50
Method in brief: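 MCF7 cells in RPMI 1640 with 10% FBS and 0.2 U/ml insulin, seeded at 1,500 cells/well (ATCC) or 225 cells/well (ECACC). Compounds added 24 h later, then 6 days at 37° C. Viability by CellTiter-Glo 2.0 luminescence. GI50 from four-parameter fit.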

SMILES | GI50 [3] [nM] | GI50 ([1]; Table 7-A) [nM] | GI50 ([2]; Table 7-A) [nM] | GI50 ([1]; Table 7-B) [nM] | GI50 ([2]; Table 7-B) [nM]
Cc1sc2c(c1C)C(c1ccc(N3CCN(CC4CCN(c5ccc(C6=C(c7ccc(Cl)cc7Cl)CCCc7cc(C(=O)O)ccc76)cc5)CC4)CC3)cc1)=N[C@@H](C)c1nnc(C)n1-2 [IV-1] | 50 to 500 | < 50 | > 2500 |  | 
Cc1sc2c(c1C)C(c1ccc(N3CCN(CCN4CC[C@H](Oc5ccc(C6=C(c7ccc(Cl)cc7Cl)CCCc7cc(C(=O)O)ccc76)cc5)C4)CC3)cc1)=N[C@@H](C)c1nnc(C)n1-2 [IV-2] | 50 to 500 | 50 to 500 | 500 to 2500 |  | 
Cc1sc2c(c1C)C(c1ccc(N3CCN(CCN4CC(Oc5ccc(C6=C(c7ccc(Cl)cc7Cl)CCCc7cc(C(=O)O)ccc76)cc5)C4)CC3)cc1)=N[C@@H](C)c1nnc(C)n1-2 [IV-3] | 50 to 500 | < 50 | 500 to 2500 |  | 
Cc1sc2c(c1C)C(c1ccc(N3CCN(CC4CCN(c5ccc(C6=C(c7ccc(Cl)cc7Cl)CCCc7cc(C(=O)O)ccc76)cc5)CC4)CC3)cc1)=N[C@@H](Cc1ncco1)c1nnc(C)n1-2 [IV-4] | < 50 | 50 to 500 | 500 to 2500 |  | 

Now from value to molecule, other results behind:

GI50 [3] [nM] | SMILES | GI50 ([1]; Table 7-A) [nM] | GI50 ([2]; Table 7-A) [nM] | GI50 ([1]; Table 7-B) [nM] | GI50 ([2]; Table 7-B) [nM]
< 50 | COc1cc(N2CCN(CC3(O)CCN(c4cc(F)c(C5=N[C@@H](C)c6nnc(C)n6-c6sc(C)c(C)c65)cc4F)CC3)CC2)ccc1[C@@H]1c2ccc(O)cc2CC[C@@H]1c1ccccc1 [III-339, 1-(2,5-difluoro-4-((S)-2,3,6,9-tetramethyl-6H-thieno[3,2-f][1,2,4]triazolo[4,3-a][1,4]diazepin-4-yl)phenyl)-4-((4-(4-((1S,2S)-6-hydroxy-2-phenyl-1,2,3,4-tetrahydronaphthalen-1-yl)-3-methoxyphenyl)piperazin-1-yl)methyl)piperidin-4-ol] | < 50 | > 2500 |  | 
50 to 500 | COc1cc(N2CCN(CC3(O)CCN(c4cc(F)c(C5=N[C@@H](C)c6nnc(C)n6-c6sc(C)c(C)c65)cc4F)CC3)CC2)ccc1[C@H]1c2ccc(O)cc2CC[C@H]1c1ccccc1 [III-340, 1-(2,5-difluoro-4-((S)-2,3,6,9-tetramethyl-6H-thieno[3,2-f][1,2,4]triazolo[4,3-a][1,4]diazepin-4-yl)phenyl)-4-((4-(4-((1R,2R)-6-hydroxy-2-phenyl-1,2,3,4-tetrahydronaphthalen-1-yl)-3-methoxyphenyl)piperazin-1-yl)methyl)piperidin-4-ol] | 50 to 500 | 50 to 500 |  | 
< 50 | COc1cc(N2CCN(CC3(O)CCN(c4cc(F)c(C5=N[C@@H](C)c6nnc(C)n6-c6sc(C)c(C)c65)cc4F)CC3)CC2)c(F)cc1[C@@H]1c2ccc(O)cc2CC[C@@H]1c1ccccc1 [III-341, 1-(2,5-difluoro-4-((6S)-2,3,6,9-tetramethyl-6H-thieno[3,2-f][1,2,4]triazolo[4,3-a][1,4]diazepin-4-yl)phenyl)-4-((4-(2-fluoro-4-((1S,2S)-6-hydroxy-2-phenyl-1,2,3,4-tetrahydronaphthalen-1-yl)-5-methoxyphenyl)piperazin-1-yl)methyl)piperidin-4-ol] | < 50 | > 2500 |  | 
50 to 500 | COc1cc(N2CCN(CC3(O)CCN(c4cc(F)c(C5=N[C@@H](C)c6nnc(C)n6-c6sc(C)c(C)c65)cc4F)CC3)CC2)c(F)cc1[C@H]1c2ccc(O)cc2CC[C@H]1c1ccccc1 [III-342, 1-(2,5-difluoro-4-((6S)-2,3,6,9-tetramethyl-6H-thieno[3,2-f][1,2,4]triazolo[4,3-a][1,4]diazepin-4-yl)phenyl)-4-((4-(2-fluoro-4-((1R,2R)-6-hydroxy-2-phenyl-1,2,3,4-tetrahydronaphthalen-1-yl)-5-methoxyphenyl)piperazin-1-yl)methyl)piperidin-4-ol] | 50 to 500 | 50 to 500 |  | 
< 50 | Cc1sc2c(c1C)C(c1ccc(N3C[C@@H]4C(NCCOc5ccc([C@H]6c7ccc(O)cc7CC[C@H]6c6ccccc6)cc5)[C@H]4C3)cc1)=NC(Cc1ncco1)c1nnc(C)n1-2 (stereo partly drawn) [III-347] |  |  | < 50 | < 50

Reference: US12558428B2, “Heterobifunctional compounds and their use in treating disease” (Halda Therapeutics OpCo, Inc., priority 2024, dated 2026)
